Where two headings read alike, the source gives them in different places. Numbered stars: 1 amine (or outer) side, 2 acyl side, 3 side chain; on linkers, the order of the positions; unused ones are H or OH. Bridge positions count the residues as written; N and C are the ends. Square brackets hold non-standard residues; d marks the D form. Peptide text beside a SMILES is read from it. Trp(βS-Me,7-OMe) = COc1cccc2c([C@H](C)[C@H](N)C(=O)O)c[nH]c12; Trp(1-CH2COOH) = N[C@@H](Cc1cn(CC(=O)O)c2ccccc12)C(=O)O; X32 = NC(=O)c1ccc([C@@H](O)C(N[*:1])C(=O)[*:2])cc1; Ala(indazol-1-yl) = N[C@@H](Cn1ncc2ccccc21)C(=O)O; Trp(7-CN) = N#Cc1cccc2c(C[C@H](N)C(=O)O)c[nH]c12; Trp(7-Cl) = N[C@@H](Cc1c[nH]c2c(Cl)cccc12)C(=O)O; Ala(pyrimidin-5-yl) = N[C@@H](Cc1cncnc1)C(=O)O; Phe(4-CONH2) = NC(=O)c1ccc(C[C@H](N)C(=O)O)cc1; Phe(4-COOH) = N[C@@H](Cc1ccc(C(=O)O)cc1)C(=O)O; X25 = O=C(O)c1ccc(C[C@H](N[*:1])C(=O)[*:2])cn1; Trp(7-aza) = N[C@@H](Cc1c[nH]c2ncccc12)C(=O)O; Phe(4-CH2NH2) = NCc1ccc(C[C@H](N)C(=O)O)cc1; dPro(4S-NH2) = N[C@@H]1CN[C@@H](C(=O)O)C1; Pip(5R-OH) = O=C(O)[C@@H]1CC[C@@H](O)CN1; X1 = O=C([C@@H]1CC[C@H](N[*:1])C1)[*:2]; NHCH2CH2SCH2CO = O=C(CSCCN[*:1])[*:2]; Pip(4-aza) = O=C(O)[C@@H]1CNCCN1; hPhe = N[C@@H](CCc1ccccc1)C(=O)O; 4Pal = N[C@@H](Cc1ccncc1)C(=O)O; NMeE = CN[C@@H](CCC(=O)O)C(=O)O; dHyp = O=C(O)[C@H]1C[C@H](O)CN1; NMehSer = CN[C@@H](CCO)C(=O)O; αMeS = C[C@](N)(CO)C(=O)O; NMeA = CN[C@@H](C)C(=O)O; Nle = CCCC[C@H](N)C(=O)O; Sar = CNCC(=O)O
How the values were obtained:
[1] = biological target: T1, human TNFR1 extracellular domain (ECD) protein (Homo sapiens, UniProt P19438); experiment: SPR binding affinity to captured human TNFR1 ECD
T1 construct: HRV 3C protease cleavage site (C); 6His (C, cleaved yes); made in house; host or cells: Sf21 insect cells (baculovirus), secreted
T1 sequence (P19438 30-211): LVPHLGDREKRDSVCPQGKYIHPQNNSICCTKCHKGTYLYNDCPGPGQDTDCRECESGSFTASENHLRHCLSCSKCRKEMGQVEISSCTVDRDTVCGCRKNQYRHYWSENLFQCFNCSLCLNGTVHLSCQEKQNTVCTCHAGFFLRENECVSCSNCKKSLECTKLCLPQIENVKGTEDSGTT
Protocol: (§1) B. Procedure for Binding Affinity and Selectivity measured by SPR
(§2) Affinity and selectivity for hTNFR1 and TNFR2 was determined using SPR. Human TNFR1 or TNFR2 genes (extracellular domain only) were synthesized with a C-terminal Avi-tag, HRV 3C protease cleavage site followed by a 6His-tag for affinity purification. The final gene product was cloned into pBAC™-1 vector (Millipore Sigma) for expression testing in insect cells. Constructs were transfected into Sf21 cells for baculovirus generation followed by protein expression analysis in Sf21 and Tni cell lines. Large scale expression in Sf21 cells was performed using baculovirus infected insect cells (BIICs) infected at a MOI=2.0 grown for 72 h. Target proteins secreted into the media were harvested via centrifugation and concentrated using diafiltration. TNFR was purified by immobilized metal ion affinity chromatography (IMAC) using a Ni-Sepharose HisTrap™ column (Cytiva™). Isolated TNFR had His tag removed using HRV 3C protease followed by additional purification using Ni-NTA chromatography. Biotinylation was performed on Ni-NTA flow-through fractions concentrated to 45 μM and treated with BirA ligase (1:100, μg/μg ratio) in 50 mM Tris pH 7.5, 150 mM NaCl, 50 μM biotin, 10 mM magnesium acetate, 10 mM ATP at 4° C. for 20 h. Final purification of biotin-TNFR and buffer exchange into 20 mM HEPES pH 7.5, 150 mM NaCl was performed using a HiLoad® Superdex® 200 26/60 column (Cytiva™). Highly purified protein was aliquoted and stored at −80° C.
(§3) The SPR assay uses a Cytiva™ 8K or 8K+ biosensor instrument to measure the kinetics of peptide analytes binding to captured human TNFR1 extracellular domain (ECD) protein; peptide analytes are also evaluated for any off-target binding to human TNFR2 ECD protein in parallel. Recombinant human TNFR1 ECD and human TNFR2 ECD proteins, biotinylated via engineered C-terminal avi-tags, are immobilized to a regenerable streptavidin biosensor chip surface (Cytiva™ Biotin CAPture kit, Series S; cat. #28920234). Peptide analytes binding to immobilized human TNFR1 ECD protein and their subsequent dissociation are conducted in a buffer of 10 mM HEPES pH 7.4, 150 mM NaCl, 3 mM EDTA, 0.05% P20,2% DMSO under laminar flow conditions and measured in response units (RU), which are directly proportional to the accumulated mass on the surface of the biosensor chip; the biosensor chip surface is regenerated via Cytiva™ proprietary methods between the evaluation of each peptide analyte. […] The SPR assay determines the association and dissociation rate constants, kon and koff, for each peptide analyte and, from these values, calculates the binding affinity, […] reported in Table 2.

[2] = biological target: T2, human TNFR2 ECD protein (Homo sapiens, UniProt P20333); experiment: SPR off-target binding (selectivity) to human TNFR2 ECD
T2 construct: HRV 3C protease cleavage site (C); 6His (C, cleaved yes); made in house; host or cells: Sf21 insect cells (baculovirus), secreted
T2 sequence (P20333 23-257): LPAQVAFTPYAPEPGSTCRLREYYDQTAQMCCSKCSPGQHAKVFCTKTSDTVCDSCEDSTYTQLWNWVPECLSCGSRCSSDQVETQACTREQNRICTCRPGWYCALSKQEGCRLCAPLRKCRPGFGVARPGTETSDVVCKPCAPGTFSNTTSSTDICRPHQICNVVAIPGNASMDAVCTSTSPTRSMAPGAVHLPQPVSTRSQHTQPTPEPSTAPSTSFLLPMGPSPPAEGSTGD
Protocol: as §1, §2, §3

[3] = biological target: T3, TNFα-induced NF-κB signal transduction pathway (TNFR1 signaling) in THP-1 cells (Homo sapiens, UniProt P19438); experiment: THP-1 Lucia NF-κB reporter cell assay, inhibition of TNFα-induced NF-κB signaling; format: cell-based; conditions: THP-1 NF-κB Lucia reporter cells, 10 ng/mL TNFα, 16-18 h, secreted luciferase; read-out: THP-1 IC50
T3 sequence (P19438 30-455): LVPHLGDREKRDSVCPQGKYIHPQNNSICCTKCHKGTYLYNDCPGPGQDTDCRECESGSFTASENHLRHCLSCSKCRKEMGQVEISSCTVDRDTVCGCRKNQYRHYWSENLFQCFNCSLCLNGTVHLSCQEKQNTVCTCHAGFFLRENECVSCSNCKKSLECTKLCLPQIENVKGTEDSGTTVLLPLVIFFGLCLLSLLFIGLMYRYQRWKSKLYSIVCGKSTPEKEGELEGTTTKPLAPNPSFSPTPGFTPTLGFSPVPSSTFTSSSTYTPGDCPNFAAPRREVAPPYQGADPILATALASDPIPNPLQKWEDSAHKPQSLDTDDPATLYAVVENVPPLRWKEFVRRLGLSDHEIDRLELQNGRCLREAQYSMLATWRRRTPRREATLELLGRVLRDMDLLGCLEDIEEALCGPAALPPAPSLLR
Outline: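 THP-1 Lucia NF-κB cells, 20k/well, no selection antibiotics; peptide pre-inc 1 h 37 °C; + recombinant human TNFα 10 ng/mL final; o.n.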

[4] = biotinylated human TNFR1 ECD on streptavidin chip, from kon and koff, read-out: SPR hTNFR1 KD
[5] = biotinylated human TNFR2 ECD on streptavidin chip, read-out: SPR hTNFR2 KD

| SMILES | Kd [1, 4] [nM] | Kd [2, 5] [nM] | IC50 [3] [nM] | Kd [1] [nM] | Kd [2] [nM] |
| --- | --- | --- | --- | --- | --- |
| CCCC[C@@H]1NC(=O)[C@@H]2CC[C@@H](C2)NC(=O)[C@H]([C@@H](C)c2c[nH]c3c(OC)cccc23)NC(=O)CN(C)C(=O)C([C@H](O)c2ccc(C(N)=O)cc2)NC(=O)[C@H](Cc2ccc(C(N)=O)cc2)NC(=O)[C@](C)(CO)NC(=O)[C@H](Cc2c[nH]c3c(C#N)cccc23)NC(=O)[C@H](Cc2ccc(C(=O)O)cc2)NC(=O)[C@H](CC(N)=O)NC(=O)[C@H]2C[C@H](N)CN2C(=O)[C@H](Cc2cn(CC(=O)O)c3ccccc23)NC(=O)[C@@H]2CC[C@@H](O)CN2C(=O)[C@H](Cc2ccncc2)NC1=O (stereo partly drawn) [SEQ ID NO. 87] (cyclo([4Pal][Pip(5R-OH)][Trp(1-CH2COOH)][dPro(4S-NH2)]N[Phe(4-COOH)][Trp(7-CN)][αMeS][Phe(4-CONH2)][X32][Sar][Trp(βS-Me,7-OMe)][X1][Nle])) | 0.02 | > 1000 | 0.7 |  |  |
| CCCC[C@@H]1NC(=O)CSC[C@@H](C(N)=O)NC(=O)[C@H]([C@@H](C)c2c[nH]c3c(OC)cccc23)NC(=O)CN(C)C(=O)[C@H](Cc2ccc(O)cc2)NC(=O)[C@H](Cc2ccc(C(=O)O)cc2)NC(=O)[C@](C)(CO)NC(=O)[C@H](Cc2c[nH]c3c(Cl)cccc23)NC(=O)[C@H](Cc2ccncc2)NC(=O)[C@H](CC(N)=O)NC(=O)[C@H](CCC(=O)O)N(C)C(=O)[C@H](Cc2c[nH]c3ncccc23)NC(=O)[C@H](CCOC)N(C)C(=O)[C@H](Cc2ccncc2)NC1=O [SEQ ID NO. 99] ({CH2CO}-[Nle][4Pal][NMehSer](Me)[Trp(7-aza)][NMeE]N[4Pal][Trp(7-Cl)][αMeS][Phe(4-COOH)]Y[Sar][Trp(βS-Me,7-OMe)]C-NH2; thioether N-14) |  |  | 3.7 | 0.15 | > 1000 |
| C[C@H]1C(=O)N[C@@H](CC(N)=O)C(=O)N[C@@H](Cc2ccncc2)C(=O)N[C@@H](Cc2c[nH]c3ccccc23)C(=O)N[C@@](C)(CO)C(=O)N[C@@H](Cc2ccc(C(=O)O)cc2)C(=O)N[C@@H](Cc2ccc(O)cc2)C(=O)N(C)CC(=O)N[C@@H](Cc2c[nH]c3ccccc23)C(=O)N[C@H](C(N)=O)CSCC(=O)N[C@@H](CCc2ccccc2)C(=O)N[C@@H](Cc2ccc(O)cc2)C(=O)N[C@@H](CO)C(=O)N[C@@H](Cn2ncc3ccccc32)C(=O)N1C [SEQ ID NO. 265] ({CH2CO}-[hPhe]YS[Ala(indazol-1-yl)][NMeA]N[4Pal]W[αMeS][Phe(4-COOH)]Y[Sar]WC-NH2; thioether N-14) | 1 | > 1000 | 4.9 |  |  |
| CCCC[C@@H]1NC(=O)[C@@H]2CC[C@@H](C2)NC(=O)[C@H]([C@@H](C)c2c[nH]c3c(OC)cccc23)NC(=O)CN(C)C(=O)[C@H](Cc2ccc(O)cc2)NC(=O)[C@H](Cc2ccc(C(N)=O)cc2)NC(=O)[C@](C)(CO)NC(=O)[C@H](Cc2c[nH]c3c(Cl)cccc23)NC(=O)[C@H](Cc2cncnc2)NC(=O)[C@H](CC(N)=O)NC(=O)[C@H](CCC(=O)O)N(C)C(=O)[C@H](Cc2c[nH]c3ccccc23)NC(=O)[C@@H]2CC[C@@H](O)CN2C(=O)[C@H](Cc2ccncc2)NC1=O [SEQ ID NO. 102] (cyclo([4Pal][Pip(5R-OH)]W[NMeE]N[Ala(pyrimidin-5-yl)][Trp(7-Cl)][αMeS][Phe(4-CONH2)]Y[Sar][Trp(βS-Me,7-OMe)][X1][Nle])) |  |  | 0.5 | 0.2 | > 1000 |
| CCCC[C@@H]1NC(=O)CSC[C@@H](C(N)=O)NC(=O)[C@H]([C@@H](C)c2c[nH]c3c(OC)cccc23)NC(=O)CN(C)C(=O)[C@H](Cc2ccc(O)cc2)NC(=O)[C@H](Cc2ccc(C(=O)O)cc2)NC(=O)[C@](C)(CO)NC(=O)[C@H](Cc2c[nH]c3c(Cl)cccc23)NC(=O)[C@H](Cc2ccncc2)NC(=O)[C@H](CC(N)=O)NC(=O)[C@H](CCC(=O)O)N(C)C(=O)[C@H](Cc2c[nH]c3ncccc23)NC(=O)[C@@H]2CNCCN2C(=O)[C@H](Cc2ccncc2)NC1=O [SEQ ID NO. 68] ({CH2CO}-[Nle][4Pal][Pip(4-aza)][Trp(7-aza)][NMeE]N[4Pal][Trp(7-Cl)][αMeS][Phe(4-COOH)]Y[Sar][Trp(βS-Me,7-OMe)]C-NH2; thioether N-14) | 0.55 | > 1000 | 3 |  |  |
| CCCC[C@@H]1NC(=O)[C@@H]2CC[C@@H](C2)NC(=O)[C@H]([C@@H](C)c2c[nH]c3c(OC)cccc23)NC(=O)CN(C)C(=O)[C@H](Cc2ccc(C(=O)O)cc2)NC(=O)[C@H](Cc2ccc(C(N)=O)cc2)NC(=O)[C@](C)(CO)NC(=O)[C@H](Cc2c[nH]c3c(Cl)cccc23)NC(=O)[C@H](Cc2ccc(C(=O)O)nc2)NC(=O)[C@H](CC(N)=O)NC(=O)[C@H]2C[C@H](O)CN2C(=O)[C@H](Cc2c[nH]c3ncccc23)NC(=O)[C@@H]2CC[C@@H](O)CN2C(=O)[C@H](Cc2ccncc2)NC1=O [SEQ ID NO. 57] (cyclo([4Pal][Pip(5R-OH)][Trp(7-aza)][dHyp]N[X25][Trp(7-Cl)][αMeS][Phe(4-CONH2)][Phe(4-COOH)][Sar][Trp(βS-Me,7-OMe)][X1][Nle])) |  |  | 0.8 | 0.09 | > 1000 |
| CCCC[C@@H]1NC(=O)CSCCNC(=O)[C@H]([C@@H](C)c2c[nH]c3c(OC)cccc23)NC(=O)CN(C)C(=O)[C@H](Cc2ccc(O)cc2)NC(=O)[C@H](Cc2ccc(C(=O)O)cc2)NC(=O)[C@](C)(CO)NC(=O)[C@H](Cc2c[nH]c3c(Cl)cccc23)NC(=O)[C@H](Cc2ccncc2)NC(=O)[C@H](CC(N)=O)NC(=O)[C@H](CCC(=O)O)N(C)C(=O)[C@H](Cc2c[nH]c3ncccc23)NC(=O)[C@H](CO)NC(=O)[C@H](Cc2ccc(CN)cc2)NC1=O [SEQ ID NO. 258] (cyclo([4Pal][Trp(7-Cl)][αMeS][Phe(4-COOH)]Y[Sar][Trp(βS-Me,7-OMe)][NHCH2CH2SCH2CO][Nle][Phe(4-CH2NH2)]S[Trp(7-aza)][NMeE]N)) |  |  | 11.5 | 0.2 | > 1000 |

Source: patent US20240287138A1, “CYCLIC PEPTIDES FOR INHIBITING TNF RECEPTOR 1 ACTIVITY” (Merck Sharp & Dohme LLC, priority 2023, published 2024)
